For data set [1] the following is noted: 10 mg/day PO, cited from earlier work.
The nature of a further data set: clinical. To be noted: for Cmax: Dapagliflozin mean Cmax. On the procedure: The Cmax and the corresponding tmax were identified from the observed data. Log-linear regression of the terminal phase yielded the terminal rate constant (λz). The area under the plasma concentration time-curve during the dosing interval (AUCτ) was calculated by the log-linear trapezoidal rule. The area under the curve to infinity (AUC0-inf) was calculated as the sum of AUC(o-t) and Ct/z, where Ct is the observed plasma concentration obtained from the log-linear regression analysis of the last quantifiable time point and z is the terminal phase rate constant. Clearance (CL/F) was determined by dose/AUC0-inf, and the terminal half-life (t1/2) was calculated as 0.693/λz.

The nature of data set [2]: Safety: adverse events, laboratory values, vital signs, ECG. The format is in vivo, human. The note with it: as judged by the investigator. On the procedure: Blood samples were collected to evaluate anti-drug antibody (ADA) response to cotadutide. Serum samples were evaluated for ADA using a validated immunoassay. Adverse events (AEs) and serious adverse events (SAEs) were collected from the time of informed consent throughout the treatment period and including the follow-up period. AEs and SAEs were graded by severity and relationship to investigational product and SAEs were assessed for relationship to protocol procedures.

For the compound `CCOc1ccc(Cc2cc([C@@H]3O[C@H](CO)[C@@H](O)[C@H](O)[C@H]3O)ccc2Cl)cc1` [dapagliflozin], the “Dapagliflozin Cmax (literature)” value in data set [1] (Dapagliflozin NDA 202293) is 120 ng/mL. In data set [1] (Dapagliflozin NDA 202293), the “Dapagliflozin tmax (literature)” value is 1 h. For the same compound, the “Dapagliflozin half-life (literature)” value in data set [1] (literature data) was 15 h. In addition, the “Impact of cotadutide on dapagliflozin oral absorption” value in the data set “clinical” (dapagliflozin 10 mg/day PO) is recorded as “marginal impact”. Besides, in “clinical” (human, plasma, oral, 10 mg/day), the half-life is approximately 8 h. For the same compound, the Cmax in the data set “clinical” (human, plasma, oral, cotadutide group, Day −1 (cotadutide not yet co-administered)) was 117 ng/mL; in the data set “clinical” (human, plasma, oral, group receiving dapagliflozin and placebo, Day 7), 92 ng/mL; in “clinical” (human, plasma, oral, group receiving dapagliflozin and placebo, Day 14) it was 95.6 ng/mL; in the data set “clinical” (human, plasma, oral, group receiving dapagliflozin and placebo, Day 28) it was 112 ng/mL; in the data set “clinical” (human, plasma, oral, group receiving dapagliflozin and placebo, Day −1) it was 110 ng/mL; in the data set “clinical” (human, plasma, oral, in the presence of cotadutide, Day 7), 84.4 ng/mL. Besides, the Cmax in “clinical” (human, plasma, oral, in the presence of cotadutide, Day 14) is 61.1 ng/mL; in the data set “clinical” (human, plasma, oral, in the presence of cotadutide, Day 28), 94.2 ng/mL. Besides, the “Incidence of dapagliflozin-related TEAEs, cotadutide group” value in data set [2] is given as 4.0%. Also, the “Incidence of dapagliflozin-related TEAEs, placebo group” value in data set [2] stood at 8.3%.

For orientation: half-life means the time in which the quantity being followed falls by half. Read a low half-life as rapid decline. By Cmax is commonly meant the highest concentration seen after dosing.
